Assay results published in patent publication US20150335549A1, “Oral Care Composition Containing Ionic Liquids” (COLGATE-PALMOLIVE COMPANY, priority 2012, published 2015).

Assays:
A. viscosus = experiment: Growth inhibition of A. viscosus over 24 hours (bacterial optical density); format: cell-based; details: for Bacterial optical density, 4 h / Bacterial optical density, 22 h / Bacterial optical density, 24 h / Bacterial optical density, 0 h: 500 μl test sample added to 9.5 ml A. viscosus in TSB, 3 replicates; for Bacterial optical density, 0 h: initial O.D.
Source text: Bacterial optical density was captured every at 0, 4, 22 and 24 hrs.

3-day biofilm = experiment: Design-of-experiments statistical analysis / D-Optimal Design prediction of 3-day biofilm removal; details: glycerin 10%, propylene glycol 5%; for Percent biofilm removal: sorbitol 10%; for Percent biofilm removal if sorbitol at 20%: sorbitol 20%
Method: A statistical design-of-experiments (DOE) approach was used to develop prototype mouth rinse formulations for biofilm removal. An 8 factor design was used. A mouth rinse was used a base formulation (see Table 3). […] The influence of the anti-bacterial agent cetyl pyridinium chloride (CPC) on biofilm removal was also evaluated. The sweetener sucralose and the flavor were at kept constant concentration in all the formulations.

[1] = test system: biofilm of artificial mouth consortium (A. naeslundii, S. oralis, V. parvula, L. casei, F. nucleatum) of bacteria with S. mutans; experiment: In vitro biofilm removal: 3-day old multispecies oral biofilm on saliva-coated 24 well plate, optical density at 610 nm, % reduction from water control; details: for % removal in High humectant mouthwash / % removal in Low humectant mouthwash: 3-day old biofilm; for impact on biofilm removal (in words): ingredient effect in mouthrinse formulations, 3-day old in-vitro oral biofilm

Question: What does the source list for “1,2,4-trimethyl-pyrazolium methylsulfate”?
Answer: Bacterial optical density, 4 h (A. viscosus): 0.1978; Bacterial optical density, 22 h (A. viscosus): 0.8519; Bacterial optical density, 24 h (A. viscosus): 1.0042; Bacterial optical density, 0 h (A. viscosus): 0.1482

Question: For “1-buty1-3-methylimidazolium (BMIM) bromide”, which “Bacterial optical density, 4 h” value (A. viscosus) is on record?
Answer: 0.2373

Question: What about the “Bacterial optical density, 22 h” value (A. viscosus) of the same compound?
Answer: 0.5994

Question: And the “Bacterial optical density, 24 h” value (A. viscosus)?
Answer: 0.8244

Question: And the “Bacterial optical density, 0 h” value (A. viscosus)?
Answer: 0.1482

Question: What does the source list for “1-ethy1-3-methylimidazolium (EMIM) bromide”?
Answer: Bacterial optical density, 4 h (A. viscosus): 0.2216; Bacterial optical density, 22 h (A. viscosus): 0.7598; Bacterial optical density, 24 h (A. viscosus): 0.8533; Bacterial optical density, 0 h (A. viscosus): 0.1482

Question: Which “Bacterial optical density, 4 h” value (A. viscosus) does the source give for C=CCn1cc[n+](C)c1.[Cl-] [1-ally1-3-methylimidazolium (AMIM) chloride] here?
Answer: 0.2265

Question: What about the “Bacterial optical density, 22 h” value (A. viscosus) of the same compound?
Answer: 0.7091

Question: And the “Bacterial optical density, 24 h” value (A. viscosus)?
Answer: 0.8440

Question: What about the “Bacterial optical density, 0 h” value (A. viscosus) of the same compound?
Answer: 0.1482

Question: How did the “Bacterial optical density, 4 h” value (A. viscosus) turn out when C[N+](C)(C)CCO.[Cl-] [Choline chloride] was run?
Answer: 0.2445

Question: What about the “Bacterial optical density, 22 h” value (A. viscosus) of the same compound?
Answer: 1.0236

Question: What about the “Bacterial optical density, 24 h” value (A. viscosus) of the same compound?
Answer: 1.0674

Question: What about the “Bacterial optical density, 0 h” value (A. viscosus) of the same compound?
Answer: 0.1482

Question: For C[N+](C)(C)CCO.O=C([O-])c1ccccc1O [Choline salicylate, choline salicylate], which Percent biofilm removal (3-day biofilm; choline salicylate 10, TRIS 0) is on record?
Answer: 48%

Question: And the “Percent biofilm removal if sorbitol at 20%” value (3-day biofilm; choline salicylate 10, TRIS 0)?
Answer: 53%

Question: What about the Percent biofilm removal (3-day biofilm; choline salicylate 20, TRIS 0) of the same compound?
Answer: 61%

Question: And the “Percent biofilm removal if sorbitol at 20%” value (3-day biofilm; choline salicylate 20, TRIS 0)?
Answer: 66%

Question: What about the “Bacterial optical density, 4 h” value (A. viscosus) of the same compound?
Answer: 0.1523

Question: And the “Bacterial optical density, 22 h” value (A. viscosus)?
Answer: 0.1542

Question: And the “Bacterial optical density, 24 h” value (A. viscosus)?
Answer: 0.1539

Question: What about the “growth inhibition of A. viscosus (in words)” value (A. viscosus; formulated at 10% concentration in a mouth rinse) of the same compound?
Answer: greater growth inhibition of A. viscosus than does a mouthrinse which contains 0.075% cetyl pyridinium chloride

Question: What about the “Bacterial optical density, 0 h” value (A. viscosus) of the same compound?
Answer: 0.1482

Question: Which results are given for CC(=O)[O-].CCn1cc[n+](C)c1 [EMIM acetate]?
Answer: Bacterial optical density, 4 h (A. viscosus): 0.2324; Bacterial optical density, 22 h (A. viscosus): 0.7942; Bacterial optical density, 24 h (A. viscosus): 0.8223; Bacterial optical density, 0 h (A. viscosus): 0.1482

Question: For CCOS(=O)(=O)[O-].CCn1cc[n+](C)c1 [EMIM ethylsulfate], which “Bacterial optical density, 4 h” value (A. viscosus) is on record?
Answer: 0.2499

Question: What about the “Bacterial optical density, 22 h” value (A. viscosus) of the same compound?
Answer: 0.7514

Question: What about the “Bacterial optical density, 24 h” value (A. viscosus) of the same compound?
Answer: 0.7965

Question: What about the “Bacterial optical density, 0 h” value (A. viscosus) of the same compound?
Answer: 0.1482

Question: Which results are given for C[N+](CCO)(CCO)CCO [Tris-HMAM, tris (2-hydroxyethyl) methylammonium methylsulfate]?
Answer: Percent biofilm removal (3-day biofilm; choline salicylate 0, TRIS 10): 47%; Percent biofilm removal if sorbitol at 20% (3-day biofilm; choline salicylate 0, TRIS 10): 52%; Percent biofilm removal (3-day biofilm; choline salicylate 0, TRIS 20): 60%; Percent biofilm removal if sorbitol at 20% (3-day biofilm; choline salicylate 0, TRIS 20): 65%; % removal in High humectant mouthwash ([1]; 1% Tris-HMAM): 39.0%; % removal in Low humectant mouthwash ([1]; 1% Tris-HMAM): 25.6%; % removal in High humectant mouthwash ([1]; 2.5% Tris-HMAM): 50.5%; % removal in Low humectant mouthwash ([1]; 2.5% Tris-HMAM): 28.2%; % removal in High humectant mouthwash ([1]; 5% Tris-HMAM): 53.9%; % removal in Low humectant mouthwash ([1]; 5% Tris-HMAM): 30.9%; % removal in High humectant mouthwash ([1]; 10% Tris-HMAM): 57.7%; % removal in Low humectant mouthwash ([1]; 10% Tris-HMAM): 46.8%; % removal in High humectant mouthwash ([1]; 20% Tris-HMAM): 71.1%; % removal in Low humectant mouthwash ([1]; 20% Tris-HMAM): 57.3%; % removal in High humectant mouthwash ([1]; 40% Tris-HMAM): 73.2%; % removal in Low humectant mouthwash ([1]; 40% Tris-HMAM): 67.1%; impact on biofilm removal (in words) [1]: enhances biofilm removal; Bacterial optical density, 4 h (A. viscosus): 0.2605; Bacterial optical density, 22 h (A. viscosus): 0.8415; Bacterial optical density, 24 h (A. viscosus): 0.9087; Bacterial optical density, 0 h (A. viscosus): 0.1482

Question: For OCC(O)CO [glycerin], which “impact on biofilm removal (in words)” value [1] is on record?
Answer: increases the percent of biofilm removal

Question: CC(O)CO (stereo not drawn) [propylene glycol] was tested. Which “impact on biofilm removal (in words)” value [1] did it give?
Answer: increases the percent of biofilm removal

Question: With OC[C@@H](O)[C@@H](O)[C@H](O)[C@@H](O)CO [sorbitol] as the compound, how does the “increase in biofilm removal” value (3-day biofilm; 20% sorbitol in the formulations) read?
Answer: ~5%

Question: What about the “impact on biofilm removal (in words)” value [1] of the same compound?
Answer: increases the percent of biofilm removal

Question: Which “Bacterial optical density, 4 h” value (A. viscosus) does the source give for Choline acetate here?
Answer: 0.2559

Question: And the “Bacterial optical density, 22 h” value (A. viscosus)?
Answer: 0.9480

Question: What about the “Bacterial optical density, 24 h” value (A. viscosus) of the same compound?
Answer: 1.0385

Question: What about the “Bacterial optical density, 0 h” value (A. viscosus) of the same compound?
Answer: 0.1482
